In US20080311169A1, “Composition Comprising Ginsenosides for Treating or Preventing Angiostenosis and Restenosis” (priority 2004, published 2008):
Like-named read-outs stand apart in the source and are kept apart here.

What was measured:
[1] = tested on: SMCs (human aortic smooth muscle cells); test: Cell cytotoxicity, colorimetric MTT assay
Experimental: SMCs (human aortic smooth muscle cells, Cambrex, USA) were cultured in SmGM-2 BulletKit (Cambex, USA) medium containing 10% FBS (Cambrex, USA), with 100× antibiotics (Cambex, USA) added thereto, and subcultured by using 1×trypsin-EDTA (Gibco BRL, USA) with maintaining the condition of 37° C., 5% CO2.
Before confirming whether ginsenoside and red ginseng extract affect the growth of muscle cell, the cell cytotoxicity was determined as the effect of cell cytotoxicity induced by ginsenosides Rk1, Rg3, and Rg5, red ginseng extract, and the present composition in muscle cell.
The cell cytotoxicity to the sample was determined by colorimetric MTT assay (Scudiero D. A. et al., Cancer Res., 48:4827-4833, 1988). That is, the muscle cell was plated to 96 wells microtiter tissue culture plate (Falcon) by 1×10^4 cells/ml, and then each well was treated with the sample, cultured for a certain period of time, treated with MTT sample, and melted with solubilization solution when formazan was formed, and the absorbance was determined at 540 nm.

[2] = tested on: SMCs (human aortic smooth muscle cells); test: Cell proliferation ELISA BrdU assay; format: cell-based; conditions: for inhibition at 5 µg/mL: Homo sapiens, at the concentration of 5 μg/ml, FIGS. 3 and 4, read-out: inhibition of the growth of muscle cell; for inhibition of the growth of muscle cell (in words): absorbance 450 nm, FIGS. 3 and 4
Experimental: To determine the effects of cell proliferation by the sample, Cell proliferation ELISA BrdU assay kit (Roche, USA) was purchased and used. Cells were put into 96 wells plate, treated with the sample after cultivation, and cultured for a certain period of time. At a certain point of time, BrdU labeling solution was added into the cells, which in turn were reacted at 37° C., in 5% CO2 for 2 hr. Then, FixDenat was added thereto, and the mixture was reacted at the room temperature for 30 min. And, Anti-BrdU-POD working solution was added thereto, and the mixture was reacted at the room temperature for 1 hr and 30 min. Afterwards, substrate solution was added thereto, and the mixture was reacted at the room temperature for 20 min. The reaction was stopped by using sulphuric acid, and then the absorbance was determined at 450 nm.

[3] = MTT, absorbance 540 nm, proper concentration, FIGS. 1 and 2

SMILES	cell cytotoxicity in muscle cell [1]	inhibition at 5 µg/mL [2] [%]	inhibition of the growth of muscle cell (in words) [2]	cell cytotoxicity in muscle cell [1, 3]
CC(C)=CCC[C@](C)(O)[C@H]1CC[C@]2(C)[C@@H]1[C@H](O)C[C@@H]1[C@@]3(C)CC[C@H](O[C@@H]4O[C@H](CO)[C@@H](O)[C@H](O)[C@H]4O[C@@H]4O[C@H](CO)[C@@H](O)[C@H](O)[C@H]4O)C(C)(C)[C@@H]3CC[C@]12C [Rg3, ginsenoside Rg3]	no cell cytotoxicity was found	50	inhibited the growth of muscle cell	
CC(C)=CC/C=C(/C)C1CCC2(C)C1C(O)CC1C3(C)CCC(OC4OC(CO)C(O)C(O)C4OC4OC(CO)C(O)C(O)C4O)C(C)(C)C3CCC12C (centres unmarked) [Rg5, ginsenoside Rg5]		50	inhibited the growth of muscle cell	no cell cytotoxicity was found
C=C(CCC=C(C)C)C1CCC2(C)C1C(O)CC1C3(C)CCC(OC4OC(CO)C(O)C(O)C4OC4OC(CO)C(O)C(O)C4O)C(C)(C)C3CCC12C (centres unmarked) [Rk1, ginsenoside Rk1]			inhibited the growth of muscle cell	no cell cytotoxicity was found
